Results published in PubChem BioAssay (NCI).
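These data come from cells grown in 96-well plates and exposed to compound for 48 hours at five concentrations. Here, GI50 denotes the concentration required for 50% inhibition of growth. TGI: total growth inhibition.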

Columns and labels:
Experiment in all cases: growth of human tumour cells (NCI), 48 h
786-0 renal = test system: 786-0 renal
A498 renal = test system: A498 renal
A549 NSCLC = test system: A549 NSCLC
ACHN renal = test system: ACHN renal
BT-549 breast = test system: BT-549 breast
CAKI-1 renal = test system: CAKI-1 renal
CCRF-CEM leukemia = test system: CCRF-CEM leukemia
COLO 205 colon = test system: COLO 205 colon
DU-145 prostate = test system: DU-145 prostate
EKVX NSCLC = test system: EKVX NSCLC
HCC-2998 colon = test system: HCC-2998 colon
HCT-116 colon = test system: HCT-116 colon
HCT-15 colon = test system: HCT-15 colon
HL-60(TB) leukemia = test system: HL-60(TB) leukemia
HOP-62 NSCLC = test system: HOP-62 NSCLC
HS 578T breast = test system: HS 578T breast
HT29 colon = test system: HT29 colon
IGROV1 ovarian = test system: IGROV1 ovarian
K-562 leukemia = test system: K-562 leukemia
KM12 colon = test system: KM12 colon
LOX IMVI melanoma = test system: LOX IMVI melanoma
M14 melanoma = test system: M14 melanoma
MALME-3M melanoma = test system: MALME-3M melanoma
MCF7 breast = test system: MCF7 breast
MDA-MB-231 breast = test system: MDA-MB-231 breast
MDA-MB-435 = test system: MDA-MB-435
MDA-N = test system: MDA-N
MOLT-4 leukemia = test system: MOLT-4 leukemia
NCI-H226 lung = test system: NCI-H226 lung
NCI-H23 lung = test system: NCI-H23 lung
NCI-H460 lung = test system: NCI-H460 lung
NCI-H522 lung = test system: NCI-H522 lung
NCI/ADR-RES ovarian = test system: NCI/ADR-RES ovarian
OVCAR-3 ovarian = test system: OVCAR-3 ovarian
OVCAR-4 ovarian = test system: OVCAR-4 ovarian
OVCAR-5 ovarian = test system: OVCAR-5 ovarian
OVCAR-8 ovarian = test system: OVCAR-8 ovarian
PC-3 prostate = test system: PC-3 prostate
RPMI-8226 leukemia = test system: RPMI-8226 leukemia
RXF 393 renal = test system: RXF 393 renal
SF-268 CNS = test system: SF-268 CNS
SF-295 CNS = test system: SF-295 CNS
SF-539 CNS = test system: SF-539 CNS
SK-MEL-2 melanoma = test system: SK-MEL-2 melanoma
SK-MEL-28 melanoma = test system: SK-MEL-28 melanoma
SK-MEL-5 melanoma = test system: SK-MEL-5 melanoma
SK-OV-3 ovarian = test system: SK-OV-3 ovarian
SN12C renal = test system: SN12C renal
SNB-19 CNS = test system: SNB-19 CNS
SNB-75 CNS = test system: SNB-75 CNS
SW-620 colon = test system: SW-620 colon
T-47D breast = test system: T-47D breast
TK-10 renal = test system: TK-10 renal
U251 CNS = test system: U251 CNS
UACC-257 melanoma = test system: UACC-257 melanoma
UACC-62 melanoma = test system: UACC-62 melanoma
UO-31 renal = test system: UO-31 renal

Q: What does the source list for `O=C(O)CN(CCN(CC(=O)O)CC(=O)O)CC(=O)O.[Cu+2].[Na+]`?
A: GI50 (786-0 renal): > 100 µM; TGI (786-0 renal): > 100 µM; GI50 (A498 renal): > 100 µM; TGI (A498 renal): > 100 µM; GI50 (A549 NSCLC): > 100 µM; TGI (A549 NSCLC): > 100 µM; GI50 (ACHN renal): > 100 µM; TGI (ACHN renal): > 100 µM; GI50 (BT-549 breast): > 100 µM; TGI (BT-549 breast): > 100 µM; GI50 (CAKI-1 renal): > 100 µM; TGI (CAKI-1 renal): > 100 µM; GI50 (CCRF-CEM leukemia): > 100 µM; TGI (CCRF-CEM leukemia): > 100 µM; GI50 (COLO 205 colon): > 100 µM; TGI (COLO 205 colon): > 100 µM; GI50 (DU-145 prostate): > 100 µM; TGI (DU-145 prostate): > 100 µM; GI50 (EKVX NSCLC): > 100 µM; TGI (EKVX NSCLC): > 100 µM; GI50 (HCC-2998 colon): > 100 µM; TGI (HCC-2998 colon): > 100 µM; GI50 (HCT-116 colon): > 100 µM; TGI (HCT-116 colon): > 100 µM; GI50 (HCT-15 colon): > 100 µM; TGI (HCT-15 colon): > 100 µM; GI50 (HL-60(TB) leukemia): > 100 µM; TGI (HL-60(TB) leukemia): > 100 µM; GI50 (HOP-62 NSCLC): 26.2 µM; TGI (HOP-62 NSCLC): 79.5 µM; GI50 (HS 578T breast): > 100 µM; TGI (HS 578T breast): > 100 µM; GI50 (HT29 colon): > 100 µM; TGI (HT29 colon): > 100 µM; GI50 (IGROV1 ovarian): > 100 µM; TGI (IGROV1 ovarian): > 100 µM; GI50 (K-562 leukemia): > 100 µM; TGI (K-562 leukemia): > 100 µM; GI50 (KM12 colon): > 100 µM; TGI (KM12 colon): > 100 µM; GI50 (LOX IMVI melanoma): > 100 µM; TGI (LOX IMVI melanoma): > 100 µM; GI50 (M14 melanoma): > 100 µM; TGI (M14 melanoma): > 100 µM; GI50 (MALME-3M melanoma): > 100 µM; TGI (MALME-3M melanoma): > 100 µM; GI50 (MCF7 breast): > 100 µM; TGI (MCF7 breast): > 100 µM; GI50 (MDA-MB-231 breast): > 100 µM; TGI (MDA-MB-231 breast): > 100 µM; GI50 (MDA-MB-435): > 100 µM; TGI (MDA-MB-435): > 100 µM; GI50 (MDA-N): > 100 µM; TGI (MDA-N): > 100 µM; GI50 (MOLT-4 leukemia): > 100 µM; TGI (MOLT-4 leukemia): > 100 µM; GI50 (NCI-H226 lung): > 100 µM; TGI (NCI-H226 lung): > 100 µM; GI50 (NCI-H23 lung): > 100 µM; TGI (NCI-H23 lung): > 100 µM; GI50 (NCI-H460 lung): > 100 µM; TGI (NCI-H460 lung): > 100 µM; GI50 (NCI-H522 lung): > 100 µM; TGI (NCI-H522 lung): > 100 µM; GI50 (NCI/ADR-RES ovarian): > 100 µM; TGI (NCI/ADR-RES ovarian): > 100 µM; GI50 (OVCAR-3 ovarian): 19.2 µM; TGI (OVCAR-3 ovarian): 51.8 µM; GI50 (OVCAR-4 ovarian): > 100 µM; TGI (OVCAR-4 ovarian): > 100 µM; GI50 (OVCAR-5 ovarian): > 100 µM; TGI (OVCAR-5 ovarian): > 100 µM; GI50 (OVCAR-8 ovarian): > 100 µM; TGI (OVCAR-8 ovarian): > 100 µM; GI50 (PC-3 prostate): > 100 µM; TGI (PC-3 prostate): > 100 µM; GI50 (RPMI-8226 leukemia): > 100 µM; TGI (RPMI-8226 leukemia): > 100 µM; GI50 (RXF 393 renal): > 100 µM; TGI (RXF 393 renal): > 100 µM; GI50 (SF-268 CNS): > 100 µM; TGI (SF-268 CNS): > 100 µM; GI50 (SF-295 CNS): 22.3 µM; TGI (SF-295 CNS): 63.3 µM; GI50 (SF-539 CNS): > 100 µM; TGI (SF-539 CNS): > 100 µM; GI50 (SK-MEL-2 melanoma): > 100 µM; TGI (SK-MEL-2 melanoma): > 100 µM; GI50 (SK-MEL-28 melanoma): > 100 µM; TGI (SK-MEL-28 melanoma): > 100 µM; GI50 (SK-MEL-5 melanoma): > 100 µM; TGI (SK-MEL-5 melanoma): > 100 µM; GI50 (SK-OV-3 ovarian): 23.5 µM; TGI (SK-OV-3 ovarian): 65.2 µM; GI50 (SN12C renal): > 100 µM; TGI (SN12C renal): > 100 µM; GI50 (SNB-19 CNS): > 100 µM; TGI (SNB-19 CNS): > 100 µM; GI50 (SNB-75 CNS): > 100 µM; TGI (SNB-75 CNS): > 100 µM; GI50 (SW-620 colon): > 100 µM; TGI (SW-620 colon): > 100 µM; GI50 (T-47D breast): > 100 µM; TGI (T-47D breast): > 100 µM; GI50 (TK-10 renal): > 100 µM; TGI (TK-10 renal): > 100 µM; GI50 (U251 CNS): > 100 µM; TGI (U251 CNS): > 100 µM; GI50 (UACC-257 melanoma): > 100 µM; TGI (UACC-257 melanoma): > 100 µM; GI50 (UACC-62 melanoma): > 100 µM; TGI (UACC-62 melanoma): > 100 µM; GI50 (UO-31 renal): > 100 µM; TGI (UO-31 renal): > 100 µM
